Measurements reported in patent US20130040882A1, “USE OF FIBROBLAST GROWTH FACTOR FRAGMENTS” (NOVARTIS AG, priority 2003, published 2013).

Tested on: uterine gene expression
Assay: Gene expression profiling (HGU133A) in the uterus of ovariectomized monkeys treated with estradiol, tamoxifen or raloxifene
Type: in vivo, cynomolgus monkeys (Macaca fascicularis)
Settings: uterus, OVX monkeys

C#C[C@]1(O)CC[C@H]2[C@@H]3CCc4cc(O)ccc4[C@H]3CC[C@@]21C [EE]
Fold change relative to SHAM control: Insulin-like growth factor binding protein 2, 36 kda: 4.4 fold
Fold change relative to SHAM control: Insulin-like growth factor binding protein 5: 2.8 fold
Fold change relative to SHAM control: Integrin, beta 5: 1.0 fold
Fold change relative to SHAM control: Intercrine-alpha, mrna sequence: 0.9 fold
Fold change relative to SHAM control: LDL receptor adaptor protein: 0.8 fold
Fold change relative to SHAM control: LIM and senescent cell antigen-like domains 1: 1.4 fold
Fold change relative to SHAM control: Laminin, beta 1: 1.0 fold
Fold change relative to SHAM control: Latent transforming growth factor beta binding protein 1: 1.7 fold
Fold change relative to SHAM control: Matrix metalloproteinase 19: 1.2 fold
Fold change relative to SHAM control: Mitogen-activated protein kinase kinase kinase kinase 4: 0.9 fold
Fold change relative to SHAM control: Nidogen (enactin): 2.6 fold
Fold change relative to SHAM control: Osteoglycin (osteoinductive factor, mimecan): 1.0 fold
Fold change relative to SHAM control: Peroxiredoxin 1: 1.6 fold
Fold change relative to SHAM control: Phosphatase and tensin homolog (mutated in multiple advanced cancers 1): 1.2 fold
Fold change relative to SHAM control: Phospholipid transfer protein: 1.3 fold
Fold change relative to SHAM control: Pituitary tumour-transforming 1 interacting protein: 0.9 fold
Fold change relative to SHAM control: Procollagen C-endopeptidase enhancer: 1.5 fold
Fold change relative to SHAM control: Procollagen-proline, 2-oxoglutarate 4-dioxygenase (proline 4-hydroxylase), alpha polypeptide II: 1.7 fold
Fold change relative to SHAM control: Progesterone receptor: 3.2 fold
Fold change relative to SHAM control: Protein tyrosine kinase 9: 1.3 fold
Fold change relative to SHAM control: SET domain, bifurcated 1: 2.3 fold
Fold change relative to SHAM control: SPARC-like 1 (mast9, hevin): 1.5 fold
Fold change relative to SHAM control: Secreted frizzled-related protein 1: 3.6 fold
Fold change relative to SHAM control: Secreted frizzled-related protein 4: 1.9 fold
Fold change relative to SHAM control: Secreted protein, acidic, cysteine-rich (osteonectin): 1.4 fold
Fold change relative to SHAM control: Serine (or cysteine) proteinase inhibitor, clade H (heat shock protein 47), member 1, (collagen binding protein 1): 1.6 fold
Fold change relative to SHAM control: Solute carrier family 22 (organic cation transporter), member 1-like: 1.6 fold
Fold change relative to SHAM control: Solute carrier family 25 (mitochondrial carrier; adenine nucleotide translocator), member 5: 1.7 fold
Fold change relative to SHAM control: Stem cell growth factor; lymphocyte secreted C-type lectin: 1.4 fold
Fold change relative to SHAM control: Tenascin C (hexabrachion): 0.9 fold
Fold change relative to SHAM control: Testis Enhanced Gene Transcript (Bax Inhibitor 1): 1.8 fold
Fold change relative to SHAM control: Thioredoxin interacting protein: 0.5 fold
Fold change relative to SHAM control: Transforming growth factor, beta-induced, 68 kda: 0.8 fold
Fold change relative to SHAM control: Ubiquinol-cytochrome c reductase, Rieske iron-sulfur polypeptide 1: 1.1 fold
Fold change relative to SHAM control: Wingless-type MMTV integration site family, member 2B: 1.5 fold
Fold change relative to SHAM control: Wingless-type MMTV integration site family, member 16: 0.9 fold
Fold change relative to OVX: Insulin receptor (Table 46): 0.8 fold
Fold change relative to SHAM control: Insulin receptor (Table 46): 1.2 fold
Fold change relative to OVX: Insulin receptor (Table 51): 0.8 fold
Fold change relative to SHAM control: Insulin receptor (Table 51): 1.2 fold
Fold change relative to OVX: Fibronectin 1 (entry with OVX average 39): 1.6 fold
Fold change relative to OVX: Bone morphogenetic protein 1 (entry with OVX average 79): 2.6 fold
Fold change relative to OVX: Bone morphogenetic protein 1 (entry with OVX average 93): 2.9 fold
Fold change relative to OVX: Insulin-like growth factor 1 (somatomedin C) (entry with OVX average 102): 5.3 fold
Fold change relative to OVX: Fibrillin 1 (Marfan syndrome) (entry with OVX average 124): 2.2 fold
Fold change relative to OVX: Collagen, type I, alpha 2 (entry with OVX average 154): 13.2 fold
Fold change relative to OVX: Insulin-like growth factor 1 (somatomedin C) (entry with OVX average 156): 6.9 fold
Fold change relative to OVX: Solute carrier family 2 (facilitated glucose/fructose transporter), member 5 (entry with OVX average 171): 4.4 fold
Fold change relative to OVX: Solute carrier family 2 (facilitated glucose/fructose transporter), member 5 (entry with OVX average 176): 3.5 fold
Fold change relative to OVX: Collagen, type IV, alpha 1 (entry with OVX average 182): 4.3 fold
Fold change relative to OVX: Cyclin-dependent kinase inhibitor 1C (p57, Kip2) (entry with OVX average 224): 0.5 fold
Fold change relative to OVX: Insulin-like growth factor 1 (somatomedin C) (entry with OVX average 310): 6.3 fold
Fold change relative to OVX: Fibronectin 1 (entry with OVX average 419): 2.4 fold
Fold change relative to OVX: Cyclin-dependent kinase inhibitor 1C (p57, Kip2) (entry with OVX average 527): 0.4 fold
Fold change relative to OVX: Fibronectin 1 (entry with OVX average 586): 2.1 fold
Fold change relative to OVX: Fibronectin 1 (entry with OVX average 648): 1.9 fold
Fold change relative to OVX: Collagen, type IV, alpha 1 (entry with OVX average 690): 3.7 fold
Fold change relative to OVX: Fibronectin 1 (entry with OVX average 757): 1.8 fold
Fold change relative to OVX: Cyclin-dependent kinase inhibitor 1C (p57, Kip2) (entry with OVX average 762): 0.5 fold
Fold change relative to OVX: ATP synthase, H+ transporting, mitochondrial F0 complex, subunit c (subunit 9) isoform 3 (entry with OVX average 811): 2.0 fold
Fold change relative to OVX: Fibrillin 1 (Marfan syndrome) (entry with OVX average 874): 3.5 fold
Fold change relative to OVX: ATP synthase, H+ transporting, mitochondrial F0 complex, subunit c (subunit 9) isoform 3 (entry with OVX average 1007): 2.0 fold
Fold change relative to OVX: Collagen, type III, alpha 1 (Ehlers-Danlos syndrome type IV, autosomal dominant) (entry with OVX average 1084): 6.8 fold
Fold change relative to OVX: Collagen, type I, alpha 2 (entry with OVX average 2757): 5.1 fold
Fold change relative to OVX: Collagen, type III, alpha 1 (Ehlers-Danlos syndrome type IV, autosomal dominant) (entry with OVX average 3445): 4.1 fold
Fold change relative to OVX: H3 histone, family 3A (entry with OVX average 9495): 1.5 fold
Fold change relative to OVX: H3 histone, family 3A (entry with OVX average 9692): 1.4 fold
Fold change relative to SHAM control: Fibronectin 1 (entry with SHAM average 100): 0.6 fold
Fold change relative to SHAM control: Bone morphogenetic protein 1 (entry with SHAM average 143): 1.4 fold
Fold change relative to SHAM control: Cyclin-dependent kinase inhibitor 1C (p57, Kip2) (entry with SHAM average 201): 0.6 fold
Fold change relative to SHAM control: Bone morphogenetic protein 1 (entry with SHAM average 205): 1.3 fold
Fold change relative to SHAM control: Insulin-like growth factor 1 (somatomedin C) (entry with SHAM average 226): 2.4 fold
Fold change relative to SHAM control: Fibrillin 1 (Marfan syndrome) (entry with SHAM average 236): 1.2 fold
Fold change relative to SHAM control: Solute carrier family 2 (facilitated glucose/fructose transporter), member 5 (entry with SHAM average 291): 2.1 fold
Fold change relative to SHAM control: Solute carrier family 2 (facilitated glucose/fructose transporter), member 5 (entry with SHAM average 317): 2.4 fold
Fold change relative to SHAM control: Insulin-like growth factor 1 (somatomedin C) (entry with SHAM average 417): 2.6 fold
Fold change relative to SHAM control: Collagen, type IV, alpha 1 (entry with SHAM average 436): 1.8 fold
Fold change relative to SHAM control: Cyclin-dependent kinase inhibitor 1C (p57, Kip2) (entry with SHAM average 459): 0.5 fold
Fold change relative to SHAM control: Collagen, type I, alpha 2 (entry with SHAM average 493): 4.1 fold
Fold change relative to SHAM control: Insulin-like growth factor 1 (somatomedin C) (entry with SHAM average 581): 3.4 fold
Fold change relative to SHAM control: Cyclin-dependent kinase inhibitor 1C (p57, Kip2) (entry with SHAM average 660): 0.5 fold
Fold change relative to SHAM control: Fibronectin 1 (entry with SHAM average 920): 1.1 fold
Fold change relative to SHAM control: ATP synthase, H+ transporting, mitochondrial F0 complex, subunit c (subunit 9) isoform 3 (entry with SHAM average 1045): 1.6 fold
Fold change relative to SHAM control: Fibronectin 1 (entry with SHAM average 1089): 1.1 fold
Fold change relative to SHAM control: Collagen, type IV, alpha 1 (entry with SHAM average 1143): 2.2 fold
Fold change relative to SHAM control: Fibronectin 1 (entry with SHAM average 1288): 0.9 fold
Fold change relative to SHAM control: Fibronectin 1 (entry with SHAM average 1301): 1.1 fold
Fold change relative to SHAM control: ATP synthase, H+ transporting, mitochondrial F0 complex, subunit c (subunit 9) isoform 3 (entry with SHAM average 1355): 1.5 fold
Fold change relative to SHAM control: Fibrillin 1 (Marfan syndrome) (entry with SHAM average 1388): 2.2 fold
Fold change relative to SHAM control: Collagen, type III, alpha 1 (Ehlers-Danlos syndrome type IV, autosomal dominant) (entry with SHAM average 2992): 2.5 fold
Fold change relative to SHAM control: Collagen, type III, alpha 1 (Ehlers-Danlos syndrome type IV, autosomal dominant) (entry with SHAM average 7354): 1.9 fold
Fold change relative to SHAM control: Collagen, type I, alpha 2 (entry with SHAM average 7758): 1.8 fold
Fold change relative to SHAM control: H3 histone, family 3A (entry with SHAM average 9408): 1.5 fold
Fold change relative to SHAM control: H3 histone, family 3A (entry with SHAM average 10239): 1.4 fold
